Reference: patent US20230135894A1, “MK2 DEGRADERS AND USES THEREOF” (Kymera Therapeutics, Inc., priority 2021, published 2023)

What was measured:
MK2 [1] = molecular target: T1, MK2 (Homo sapiens, UniProt P49137); experiment: MK2 degradation in human THP-1 monocytic cells (MSD, 24 h); type: cell-based; set-up: endogenous in cells; settings: for Dmax: THP-1, THP-1 cells; for DC50: THP-1 cells, read-out: MK2 MSD THP-1 degradation 24 h GMean External Abs DC50
Outline: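 Readout: residual MK2 protein in THP-1 lysates, measured by MSD electrochemiluminescence sandwich assay after 24 h compound exposure (≤10-point serial dilutions, 0.1% DMSO, 37 °C). Curves normalised between lysis-buffer and DMSO-cell signals; DC50 by 4-parameter logistic fit.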

MK2 [2] = molecular target: T1, MK2; experiment: MK2 degradation in human SW1353 cells (MSD, 24 h); type: cell-based; set-up: endogenous in cells; host or cells: SW-1353 (ATCC HTB-94); key to MK2 MSD SW 1353 24 h Dmax %: —: “-”=not tested or inactive; settings: for Dmax: read-out: MK2 MSD SW 1353 24 h Dmax %; for DC50: read-out: MK2 MSD SW1353 degradation 24 h GMean External Abs DC50
Outline: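 DC50 derived by 4-parameter logistic fit, with DMSO-treated signal as top and lysis-buffer signal as bottom. Remaining MK2 was measured by MSD electrochemiluminescent sandwich assay in RIPA lysates of human SW1353 cells exposed for 24 h at 37 °C to serially diluted compound in 0.1% DMSO.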

T1 sequence (P49137 whole entry): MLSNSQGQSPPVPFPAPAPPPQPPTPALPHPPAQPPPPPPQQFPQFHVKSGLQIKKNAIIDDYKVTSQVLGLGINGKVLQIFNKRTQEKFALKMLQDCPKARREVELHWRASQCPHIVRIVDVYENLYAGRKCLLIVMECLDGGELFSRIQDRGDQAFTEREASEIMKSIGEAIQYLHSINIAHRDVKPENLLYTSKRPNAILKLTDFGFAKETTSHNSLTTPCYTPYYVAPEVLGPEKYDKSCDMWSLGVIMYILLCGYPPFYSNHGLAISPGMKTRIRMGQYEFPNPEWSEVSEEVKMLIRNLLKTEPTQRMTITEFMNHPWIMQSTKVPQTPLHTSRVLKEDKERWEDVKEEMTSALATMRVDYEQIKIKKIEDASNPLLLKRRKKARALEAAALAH

Dmax (MK2 [1]) [%]	DC50 (MK2 [1]) [nM]	Dmax (MK2 [2]) [%]	DC50 (MK2 [2]) [nM]	SMILES	MK2 MSD SW 1353 24 h Dmax % (MK2 [2])
> 75	< 1	> 75	< 1	Cn1c(=O)n(C2CCC(=O)NC2=O)c2ccc(N3CC(CN4CCN(c5ccc(-c6cc(-c7cc8c([nH]7)C7(CCCC7)CNC8=O)ccn6)cc5)CC4)C3)cc21 (centres unmarked) [Compound I-415]	
< 50	> 100	50 to 75	10 to 100	C[C@@H]1Cc2oc(-c3ccnc(-c4ccc(N5CCN(CC6CCN(c7cccc8c7n(C)c(=O)n8C7CCC(=O)NC7=O)CC6)CC5)nc4)c3)cc2C(=O)N1 (some centres unmarked) [Compound I-416]	
> 75	1 to 10	> 75	< 1	C[C@@H]1Cc2oc(-c3ccnc(-c4ccc(N5CCN(CC6CN(c7ccc8c(c7)n(C)c(=O)n8C7CCC(=O)NC7=O)C6)CC5)nc4)c3)cc2C(=O)N1 (some centres unmarked) [Compound I-417]	
> 75	1 to 10	> 75	< 1	Cn1c(=O)n(C2CCC(=O)NC2=O)c2cccc(N3CC(N4CCN(c5ccc(-c6cc(-c7cc8c([nH]7)C7(CCCC7)CNC8=O)ccn6)cc5)CC4)C3)c21 (centres unmarked) [Compound I-418]	
> 75	< 1	> 75	< 1	Cn1c(=O)n(C2CCC(=O)NC2=O)c2cccc(N3CC(N4CCN(c5ccc(-c6cc(-c7cc8c([nH]7)C7(CC7)CNC8=O)ccn6)cc5)CC4)C3)c21 (centres unmarked) [Compound I-419]	
> 75	1 to 10	> 75	1 to 10	C[C@@H]1CNc2c(sc3ccc4nc(-c5ccc(N6CCN(CC7CCN(c8cccc(C9CCC(=O)NC9=O)c8)CC7)CC6)nc5)ccc4c23)C(=O)N1 (some centres unmarked) [Compound I-420]	
> 75	1 to 10	> 75	1 to 10	C[C@@H]1CNc2c(sc3ccc4nc(-c5ccc(N6CCN(CC7CCN(c8ccc(C9CCC(=O)NC9=O)cc8)CC7)CC6)nc5)ccc4c23)C(=O)N1 (some centres unmarked) [Compound I-421]	
> 75	< 1	> 75	< 1	Cn1c(=O)n(C2CCC(=O)NC2=O)c2ccc(N3CC(CN4CCN(c5ccc(-c6cc(-c7cc8c([nH]7)C7(CCCC7)CNC8=O)ccn6)c(F)c5)CC4)C3)cc21 (centres unmarked) [Compound I-422]	
> 75	< 1	> 75	< 1	Cn1c(=O)n(C2CCC(=O)NC2=O)c2ccc(N3CC(CN4CCN(c5ccc(-c6cc(-c7cc8c([nH]7)CCNC8=O)ccn6)c(F)c5)CC4)C3)cc21 (centres unmarked) [Compound I-423]	
> 75	1 to 10	> 75	< 1	Cn1c(=O)n(C2CCC(=O)NC2=O)c2ccc(N3CCC(CN4CCN(c5ccc(-c6cc(-c7cc8c([nH]7)C7(CCCC7)CNC8=O)ccn6)c(F)c5)CC4)CC3)cc21 (centres unmarked) [Compound I-424]	
> 75	< 1	> 75	< 1	Cn1c(=O)n(C2CCC(=O)NC2=O)c2ccc(N3CC(CN4CCN(c5ccc(-c6cc(-c7cc8c([nH]7)C7(CC7)CNC8=O)ccn6)c(F)c5)CC4)C3)cc21 (centres unmarked) [Compound I-425]	
> 75	< 1	> 75	< 1	Cn1c(=O)n(C2CCC(=O)NC2=O)c2ccc(N3CC(CN4CCN(c5ccc(-c6nccc(-c7cc8c([nH]7)C7(CC7)CNC8=O)n6)cc5)CC4)C3)cc21 (centres unmarked) [Compound I-426]	
> 75	< 1	> 75	< 1	Cn1c(=O)n(C2CCC(=O)NC2=O)c2ccc(N3CCC(CN4CCN(c5ccc(-c6nccc(-c7cc8c([nH]7)CCNC8=O)n6)cc5)CC4)CC3)cc21 (centres unmarked) [Compound I-427]	
> 75	1 to 10	> 75	< 1	Cn1c(=O)n(C2CCC(=O)NC2=O)c2ccc(N3CCC(CN4CCN(c5ccc(-c6nccc(-c7cc8c([nH]7)C7(CC7)CNC8=O)n6)cc5)CC4)CC3)cc21 (centres unmarked) [Compound I-428]	
< 50	> 100	< 50	> 100	Cn1c(=O)n(C2CCC(=O)NC2=O)c2ccc(N3CCC(CN4CCN(c5ccc6oc(-c7cc(Nc8ccnc(N)n8)cc8cn[nH]c78)cc6c5)CC4)CC3)cc21 (centres unmarked) [Compound I-429]	
> 75	< 1	> 75	< 1	COc1ccc2c(c1CCN1CCN(c3ccc(-c4cc(-c5cc6c([nH]5)C5(CC5)CNC6=O)ccn4)cc3)CC1)n(C)c(=O)n2C1CCC(=O)NC1=O (centres unmarked) [Compound I-430]	
< 50	> 100	50 to 75	10 to 100	Cn1c(=O)n(C2CCC(=O)NC2=O)c2cccc(CCN3CCN(c4ccc(-c5nccc(-c6cc7c([nH]6)C6(CC6)CNC7=O)c5F)cc4)CC3)c21 (centres unmarked) [Compound I-431]	
50 to 75	10 to 100	> 75	< 1	COc1cc(-c2ccc3c(ccc4sc5c(c43)NC[C@@H](C)NC5=O)n2)c(C)cc1N1CCN(CC2CCN(c3ccc4c(c3)n(C)c(=O)n4C3CCC(=O)NC3=O)CC2)CC1 (some centres unmarked) [Compound I-432]	
> 75	1 to 10	> 75	1 to 10	C[C@@H]1CNc2c(sc3ccc4nc(-c5ccc(N6CCN(CCCCOc7ccc(N8CCC(=O)NC8=O)cc7)CC6)nc5)ccc4c23)C(=O)N1 [Compound I-437]	
> 75	1 to 10	> 75	1 to 10	C[C@@H]1CNc2c(sc3ccc4nc(-c5ccc(N6CCN(CC7CCN(c8ccc(N9CCC(=O)NC9=O)cc8)CC7)CC6)nc5)ccc4c23)C(=O)N1 [Compound I-438]	
> 75	1 to 10	> 75	< 1	C[C@@H]1CNc2c(sc3ccc4nc(N5CCC(CN6CC7(C6)CN(c6ccc8c(c6)n(C)c(=O)n8C6CCC(=O)NC6=O)C7)CC5)ccc4c23)C(=O)N1 (some centres unmarked) [Compound I-439]	
> 75	< 1	> 75	< 1	C[C@@H]1CNc2c(sc3ccc4nc(N5CCC(N6CC7(CCN(c8ccc9c(c8)n(C)c(=O)n9C8CCC(=O)NC8=O)CC7)C6)CC5)ccc4c23)C(=O)N1 (some centres unmarked) [Compound I-440]	

SMILES	Dmax (MK2 [1]) [%]	DC50 (MK2 [1]) [nM]	Dmax (MK2 [2]) [%]	DC50 (MK2 [2]) [nM]	MK2 MSD SW 1353 24 h Dmax % (MK2 [2])
C[C@@H]1CNc2c(sc3ccc4nc(N5CC6CCC(C5)N6CC5CCN(c6ccc7c(c6)n(C)c(=O)n7C6CCC(=O)NC6=O)CC5)ccc4c23)C(=O)N1 (some centres unmarked) [Compound I-433]	< 50	> 100	< 50	> 100	
C[C@@H]1CNc2c(sc3ccc4nc(N5C6CCC5CN(CC5CCN(c7ccc8c(c7)n(C)c(=O)n8C7CCC(=O)NC7=O)CC5)C6)ccc4c23)C(=O)N1 (some centres unmarked) [Compound I-434]	< 50	> 100	< 50	> 100	
C[C@@H]1CNc2c(sc3ccc4nc(N5C6CCC5CN(CC5CCN(c7cccc8c7n(C)c(=O)n8C7CCC(=O)NC7=O)CC5)C6)ccc4c23)C(=O)N1 (some centres unmarked) [Compound I-435]	< 50	> 100		> 100	—
C[C@@H]1CNc2c(sc3ccc4nc(N5CC6CCC(C5)N6CC5CCN(c6cccc7c6n(C)c(=O)n7C6CCC(=O)NC6=O)CC5)ccc4c23)C(=O)N1 (some centres unmarked) [Compound I-436]	< 50	> 100		> 100	—
